Data reported in PMC3260207, “Site-Directed Mutations and the Polymorphic Variant Ala160Thr in the Human Thromboxane Receptor Uncover a Structural Role for Transmembrane Helix 4” (PLoS ONE, 2012).
Substitutions are numbered along the chain they refer to.

Legend:
[1] = biological target: T1, TP G164A mutant (Homo sapiens, UniProt P21731, G164A); assay: Saturation radioligand binding with [3H] SQ 29,548, membranes; settings: picomoles of TP per milligram of total membrane protein, mean ± S.E
T1 construct: expressed in transfected cells; HEK293T (calcium assays)
T1 sequence (P21731 1-343 G164A): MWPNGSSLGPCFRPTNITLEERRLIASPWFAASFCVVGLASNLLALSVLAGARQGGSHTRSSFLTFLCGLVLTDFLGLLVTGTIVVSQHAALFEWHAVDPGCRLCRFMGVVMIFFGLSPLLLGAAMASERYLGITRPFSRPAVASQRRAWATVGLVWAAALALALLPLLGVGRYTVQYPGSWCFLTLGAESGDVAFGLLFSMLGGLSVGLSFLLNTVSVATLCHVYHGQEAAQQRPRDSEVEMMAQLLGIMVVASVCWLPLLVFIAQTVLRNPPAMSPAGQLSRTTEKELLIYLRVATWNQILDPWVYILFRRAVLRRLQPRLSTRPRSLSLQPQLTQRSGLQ
Method: (§1) Amino acid substitutions were introduced into the synthetic TPα gene carried by the expression vector pMT4 as described previously, [29]. DNA sequences of all the mutated genes were verified by automated DNA sequencing. To minimize variations in transfection efficiency, the total amount transfected DNA was kept constant in all cases at 1 µg of DNA per 7×10^5 cells. The wild type TP or mutant genes were expressed in COS-1 cells using a DEAE-dextran based transient transfection method, [29], and in HEK293T cells using lipofectamine 2000 (Invitrogen). Except unless specified, the membranes prepared from COS-1 cells were used for radioligand binding assays and immunoblots. For intracellular calcium determination assays and immunofluorescence imaging, HEK293T cells were used. For transient transfections of HEK293T cells using the plasmid pMT4, lipofectamine 2000 (Invitrogen) mediated transfection was used as described by the manufacturer. Membranes were prepared using Buffers A and B and as described previously, [29]. The protein concentration in the resuspended membrane pellet was determined using a modified DC protein assay kit from Bio-Rad Laboratories (Hercules, CA).
(§2) These were carried out in Buffer C for 60 min at room temperature, using 2 to 20 µg of membrane protein and different concentrations of [^3H] […] Binding of [^3H] […] Competition binding assays were performed using 4 nM [^3H] […] Binding was terminated by filtering under vacuum on GF/A filters (Millipore). Filter-bound radioactivity was measured using a liquid scintillation counter. Equilibrium dissociation constants (Kd) were determined from saturation isotherms using PRISM software version 5.0 (GraphPad Software Inc, San Diego, CA, USA). The Ki values were calculated from the IC50, using the equation of Cheng and Prusoff by PRISM software version 5.0.

[2] = biological target: T2, TP F114A mutant (Homo sapiens, UniProt P21731, F114A); assay: as above; settings: picomoles of TP per milligram of total membrane protein, mean ± S.E
T2 construct: expressed in transfected cells; HEK293T (calcium assays)
T2 sequence (P21731 1-343 F114A): T1 sequence (P21731 1-343 G164A) with F114A, A164G
Method: as §1, §2

[3] = biological target: T3, TP A160S mutant (Homo sapiens, UniProt P21731, A160S); assay: Intracellular calcium mobilization (Fluo-4NW) in transfected HEK293T cells; assay type: cell-based; settings: read-out: EC50 of agonist U46619 (calcium mobilized), transiently transfected HEK293T cells, mean ± S.E
T3 construct: expressed in transfected cells; HEK293T (calcium assays)
T3 sequence (P21731 1-343 A160S): T1 sequence (P21731 1-343 G164A) with A160S, A164G
Method: as §1
(§3) Changes in intracellular calcium were measured by using the fluorescent calcium sensitive dye Fluo-4NW (Invitrogen). After 6–8 hours of transient transfection of HEK293T cells using lipofectamine 2000, 100,000 viable cells were plated into each well of a 96-well tissue culture treated BD-falcon optilux plates. Cells mock transfected with vector pMT4 alone were used as a negative control. Following 24 hours of incubation at 37°C, the media was removed and cells were incubated with the dye Fluo-4NW (Invitrogen) containing 77 µg/ml of probenecid for 1 hour, as recommended by the manufacturer. […] Dose–response curves were generated and EC50 values calculated by nonlinear regression analysis using PRISM software version 5.0 (GraphPad Software Inc, San Diego, CA) after subtracting the responses of mock-transfected cells stimulated with same concentrations of agonists.

[4] = biological target: T4, TP V110A mutant (Homo sapiens, UniProt P21731, V110A); assay: as above; assay type: cell-based; settings: read-out: EC50 of agonist U46619 (calcium mobilized), transiently transfected HEK293T cells, mean ± S.E
T4 construct: expressed in transfected cells; HEK293T (calcium assays)
T4 sequence (P21731 1-343 V110A): T1 sequence (P21731 1-343 G164A) with V110A, A164G
Method: as §1, §3

[5] = biological target: T5, TP F107A mutant (Homo sapiens, UniProt P21731, F107A); assay: as above; assay type: cell-based; settings: read-out: EC50 of agonist U46619 (calcium mobilized), transiently transfected HEK293T cells, mean ± S.E
T5 construct: expressed in transfected cells; HEK293T (calcium assays)
T5 sequence (P21731 1-343 F107A): T1 sequence (P21731 1-343 G164A) with F107A, A164G
Method: as §1, §3

Bmax, binding maximum of the ligand SQ 29,548 for the receptor [1] [pmol/mg] | Bmax, binding maximum of the ligand SQ 29,548 for the receptor [2] [pmol/mg] | EC50 [3] [nM] | EC50 [4] [nM] | EC50 [5] [nM] | Structure (SMILES)
6.3 ± 0.4 | 1.6 ± 0.3 |  |  |  | O=C(O)CCC/C=C\C[C@@H]1[C@H](CNNC(=O)Nc2ccccc2)[C@H]2CC[C@@H]1O2 [SQ 29,548]
 |  | 9.3 ± 0.3 | 2.7 ± 0.2 | 2.5 ± 0.7 | CCCCC[C@H](O)/C=C/[C@@H]1[C@@H](C/C=C\CCCC(=O)O)[C@H]2CO[C@@H]1C2 [U46619]
